{
  "source": "patent US12728116B2",
  "about": "“Methods of treating multiple sclerosis” (Vanda Pharmaceuticals Inc., priority 2021, dated 2026)",
  "origin": "cited, not measured here",
  "system": "adult subjects with relapsing MS",
  "conditions": "comparison values given in brackets; cited from earlier work",
  "data": [
    {"compound": "CCCCCCCCc1ccc(CCC(N)(CO)CO)cc1", "note": "[fingolimod]", "values": [
      {"measurement": "ECG HR effect: time of nadir post-dose (other S1P receptor modulators)", "value": "~6", "unit": "h"}
    ]},
    {"compound": "CCc1cc(/C(C)=N/OCc2ccc(C3CCCCC3)c(C(F)(F)F)c2)ccc1CN1CC(C(=O)O)C1", "note": "[siponimod]", "values": [
      {"measurement": "ECG HR effect: time of nadir post-dose (other S1P receptor modulators)", "value": "3 to 4", "unit": "h"}
    ]}
  ]
}
